In US20260083687A1, “COMPOUNDS FOR REDUCING LACTATION AND IMPROVING HEALTH” (AHV International B.V., priority 2022, published 2026):
“And” between values parts separate entries of the source, which are not always exact repeats. Equal values may be shown once.

Tested on: cows
Test: Effect of 40 ml and 80 ml oral DPD capsule vs placebo on the milk yield of cows (Example 1)
Type: in vivo, cow
Set-up: average milk drop (Difference: observed minus expected milk yield) / average milk drop (difference): unit not given here
Details: for Milk production: 40 ml DPD oral capsule on day 13, individual cows
Method: 15 cows from 3 different farms were used in study 1 and 30 cows from 4 different farms were used in study 2. […] The cows are milked twice a day. The cows were housed in free stables. […] The farmers were not informed which cows were treated.
The placebo group existed of 8 cows, whereas the size of the treated group was 7 cows.
For study 2, the gelatin capsule contained 80 ml of the DPD and the gelatine capsule for the placebo group contained tap water. Nine cows were administered a single dose of DPD 7 to 14 days before the start of their dry-off period and nine cows were administered a single dose of the placebo capsule. The cows were placed randomly in the DPD or placebo group. This was done per group that was dried off at the same time for every farm individually, so that every farm had 50% of the cows in the treatment group and 50% in the control group.
On t =13 days the DPD-containing capsules and the placebo capsules were administered.
The following hypothesis was tested and compared by statistical analysis: H0 is defined as there is no difference between the relative milk production before and after treatment between administering of the DPD bolus and placebo, and H1 is defined as there is a difference between the relative milk production before and after treatment between the DPD and placebo group.
The data were processed as follows: based on the data obtained from day 0, 1, 2, 3 . . . 12 the expected milk yields on day 13, 14, […] were calculated by linear regression for each cow. On t=13 the Placebo-capsule or DPD-containing capsule were administered into the rumen. The predicted data (as if no administration of a Placebo or DPD-containing capsule has taken place) and actual milk yields after administration were compared from t=13 days and the milk drop was calculated. This was performed for all the cows in the tests.
Hereafter, the average milk drop was calculated as the difference between the observed and the expected milk yield per day, which is calculated by comparing the expected milk yields that were obtained via linear regression, and the actual milk yields, obtained after treatment with a Placebo or DPD.
The Null Hypothesis is that the difference is zero. We calculate the P-values for these differences using a permutation test (5000 samples).
The Null Hypothesis was defined that that the difference of the 6 treatment cows and Placebo cows is zero. We calculate the P-values for these differences using a permutation test (5000 samples).

CCCSSCCC [DPD, di-n-propyl disulfide]
Milk production (day 1 (before treatment)): 15.9 and 25.8
Milk production (day 2 (before treatment)): 15.3 and 31.7 and 5.9
Milk production (day 3 (before treatment)): 16 and 30.4 and −1.3
Milk production (day 4 (before treatment)): 15.6 and 29.9
Milk production (day 5 (before treatment)): 15.2 and 27.7
Milk production (day 6 (before treatment)): 14.5 and 28.4 and 23.6 and 24.5
Milk production (day 7 (before treatment)): 14.9 and 29.3 and 24 and 24.4
Milk production (day 8 (before treatment)): 13.4 and 28.1 and 22.4 and 24.6
Milk production (day 9 (before treatment)): 13.6 and 28.4 and 24.4 and 24.7
Milk production (day 10 (before treatment)): 13.8 and 27 and 23.4 and 25.3
Milk production (day 11 (before treatment)): 13.7 and 28.8 and 24.2 and 22.5
Milk production (day 12 (before treatment)): 12.9 and 27 and 21.7 and 22.2
Milk production (day 13 (day of treatment)): 12.9 and 27.7 and 23.2 and 20.4
Milk production (day 14): 12 and 26.4 and 22.2 and 22.3
Milk production (day 15): 11.4 and 23.7 and 23.1 and 20.5
Milk production (day 16): 11.4 and 21.5 and 23.7 and 24.4
Milk production (day 17): 12.8 and 25.4 and 23.1 and 22
Milk production (day 18): 10.9 and 27.5 and 23.2 and 14.8
Milk production (day 19): 11.6 and 25.7 and 22.9 and 9.8
Milk production (day 20): 10.2 and 24.8 and 22.3 and 24.3
Milk production (day 21): 9.9 and 23 and 21.3 and 25.8
effect on milk yield (40 ml DPD vs placebo): not in a significant decrease on milk yield
Mean Difference Treatment − Placebo (40 ml DPD, day 14): −0.3233 litres milk per day per cow
Significant (effect on milk yield vs placebo) (40 ml DPD, day 14): No
average milk drop (Difference: observed minus expected milk yield) (40 ml DPD, day 14): −0.226
Mean Difference Treatment − Placebo (40 ml DPD, day 15): −0.873 litres milk per day per cow
Significant (effect on milk yield vs placebo) (40 ml DPD, day 15): No
average milk drop (Difference: observed minus expected milk yield) (40 ml DPD, day 15): −0.9122
Mean Difference Treatment − Placebo (40 ml DPD, day 16): 1.599 litres milk per day per cow
Significant (effect on milk yield vs placebo) (40 ml DPD, day 16): No
average milk drop (Difference: observed minus expected milk yield) (40 ml DPD, day 16): 1.673
Mean Difference Treatment − Placebo (40 ml DPD, day 17): −0.4365 litres milk per day per cow
Significant (effect on milk yield vs placebo) (40 ml DPD, day 17): No
average milk drop (Difference: observed minus expected milk yield) (40 ml DPD, day 17): 1.201
Mean Difference Treatment − Placebo (40 ml DPD, day 18): −0.5789 litres milk per day per cow
Significant (effect on milk yield vs placebo) (40 ml DPD, day 18): No
average milk drop (Difference: observed minus expected milk yield) (40 ml DPD, day 18): 0.4719
Mean Difference Treatment − Placebo (40 ml DPD, day 19): −0.9982 litres milk per day per cow
Significant (effect on milk yield vs placebo) (40 ml DPD, day 19): No
average milk drop (Difference: observed minus expected milk yield) (40 ml DPD, day 19): −0.2714
Mean Difference Treatment − Placebo (40 ml DPD, day 20): −0.296 litres milk per day per cow
Significant (effect on milk yield vs placebo) (40 ml DPD, day 20): No
average milk drop (Difference: observed minus expected milk yield) (40 ml DPD, day 20): 1.657
Mean Difference Treatment − Placebo (40 ml DPD, day 21): 0.1722 litres milk per day per cow
Significant (effect on milk yield vs placebo) (40 ml DPD, day 21): No
average milk drop (Difference: observed minus expected milk yield) (40 ml DPD, day 21): 1.713
effect on milk yield (80 ml DPD vs placebo): significant decrease in milk yield
recovery of milk yield production (80 ml DPD, after the 3 days following treatment): recovers after this period
Mean Difference Treatment − Placebo (80 ml DPD, day 13): 0.2566 litres milk per day per cow
Significance (effect on milk yield vs placebo) (80 ml DPD, day 13): No
average milk drop (difference) (80 ml DPD, day 13): 0.3592
Mean Difference Treatment − Placebo (80 ml DPD, day 14): −4.56 litres milk per day per cow
Significance (effect on milk yield vs placebo) (80 ml DPD, day 14): Yes
average milk drop (difference) (80 ml DPD, day 14): −5.726
Mean Difference Treatment − Placebo (80 ml DPD, day 15): −6.729 litres milk per day per cow
Significance (effect on milk yield vs placebo) (80 ml DPD, day 15): Yes
average milk drop (difference) (80 ml DPD, day 15): −7.051
Mean Difference Treatment − Placebo (80 ml DPD, day 16): −4.421 litres milk per day per cow
Significance (effect on milk yield vs placebo) (80 ml DPD, day 16): Yes
average milk drop (difference) (80 ml DPD, day 16): −3.891
Mean Difference Treatment − Placebo (80 ml DPD, day 17): −0.4065 litres milk per day per cow
Significance (effect on milk yield vs placebo) (80 ml DPD, day 17): No
average milk drop (difference) (80 ml DPD, day 17): −1.8508
Mean Difference Treatment − Placebo (80 ml DPD, day 18): 0.2326 litres milk per day per cow
Significance (effect on milk yield vs placebo) (80 ml DPD, day 18): No
average milk drop (difference) (80 ml DPD, day 18): −1.4323
Mean Difference Treatment − Placebo (80 ml DPD, day 19): 0.9803 litres milk per day per cow
Significance (effect on milk yield vs placebo) (80 ml DPD, day 19): No
average milk drop (difference) (80 ml DPD, day 19): −0.1878
Mean Difference Treatment − Placebo (80 ml DPD, day 20): 1.162 litres milk per day per cow
Significance (effect on milk yield vs placebo) (80 ml DPD, day 20): No
average milk drop (difference) (80 ml DPD, day 20): 0.262
decrease of milk production compared to the placebo group (average) (80 ml DPD, next 3 days after treatment): 6 litres per day per cow
decreased milk production (DPD, day 2 after treatment): 7.7 L/day
